# Test results reported in publication PMC9784018, “Rational Strategy for Designing Peptidomimetic Small Molecules Based on Cyclic Peptides Targeting Protein–Protein Interaction between CTLA-4 and B7-1” (Pharmaceuticals, 2022).
# Positions of bridges follow the written chain, without caps; N, C: chain ends. Residues, ends and D or L forms follow the SMILES beside them.
# Assays:
# [1] = target: T1, interaction between CTLA-4 and B7-1 (Homo sapiens, UniProt P16410); experiment: CTLA-4:B7-1[Biotinylated] Inhibitor Screening Assay (BPS Bioscience kit); format: binding
# T1 construct: purchased BPS Bioscience Inc
# T1 sequence (P16410 36-161 limits assumed): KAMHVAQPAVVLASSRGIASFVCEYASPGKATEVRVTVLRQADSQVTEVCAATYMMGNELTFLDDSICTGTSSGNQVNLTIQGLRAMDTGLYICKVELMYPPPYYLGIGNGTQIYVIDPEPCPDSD
# Method: (§1) We prepared the C4m-3127 cyclic peptide using chemical synthesis and examined its properties. First, the inhibitory activity was tested using a kit (CTLA-4:B7-1[Biotinylated] Inhibitor Screening Assay, BPS Bioscience Inc.) (Figure 5A). […] In a sequence of C4m-3127, the GG linker behind C-terminal Cys had mutated into Glu and Arg.
# A cyclic peptide with a low EC50 value was synthesized by adding glycine to the N-terminus at Toray Research Center.
# (B) Flow cytometry affinity analysis.
# CTLA-4 = target: T2, CTLA-4 (Homo sapiens, UniProt P16410); experiment: Competitive ELISA against biotinylated C4m-3127 peptide; format: binding; conditions: competition with 30 μM biotinylated C4m-3127 peptide on immobilized CTLA-4; data not shown
# T2 sequence (P16410 36-223): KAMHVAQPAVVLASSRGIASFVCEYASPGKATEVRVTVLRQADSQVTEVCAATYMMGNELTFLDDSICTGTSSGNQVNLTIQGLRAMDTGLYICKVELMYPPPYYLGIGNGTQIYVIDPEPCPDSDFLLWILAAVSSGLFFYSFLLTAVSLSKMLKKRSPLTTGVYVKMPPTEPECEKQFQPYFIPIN
# Method: Competition experiments were performed using biotinylated C4m-3127 peptide instead of biotinylated B7-1 in the CTLA-4:B7-1[Biotinylated] inhibitor screening assay. The biotinylated C4m-3127 peptide was optimized to a concentration of 30 μM in an earlier experiment. CTLA-4 immobilized on a 384-well plate was reacted with PGF00506 in 11-point two-fold serial dilution from 1000 to 0.98 μM by assay buffer. Then, the biotinylated peptides were added to wells for competitive reaction. After washing, the residual amounts of biotinylated peptides were detected using streptavidin-HRP.
# [2] = Solubility of synthesized peptide; format: physicochemical; conditions: chemically synthesized peptide, in inhibitor screening assay
# Method: as §1
"IC50 ([1]; inhibition of CTLA-4:B7-1 interaction, luminescence, four-parameter logistic fit, read-out: IC50) [µM]",inhibitory activity compared to PGF00432 ([1]; ratio of IC50 values) [fold],"inhibitory activity compared to C4m-3127 ([1]; ratio of IC50 values, C4m-3127 synthetic peptide IC50 = 11.5 μM) [fold]",IC50 (CTLA-4) [µM],solubility [2],SMILES
6.8,43,1.7,10.5,–,"N=C(N)NCCC[C@H]1C(=O)N(CCC(c2ccccc2)c2ccccc2)C[C@@H]2N(C(=O)OCc3ccccc3)O[C@H](CC3CCCCC3)C(=O)N21 [PGF00506, Benzyl (3R,6S,9aS)-3-(cyclohexylmethyl)-8-(3,3-diphenylpropyl)-6-(3-guanidinopropyl)-4,7-dioxohexahydropyrazino [2,1-c][1,2,4]oxadiazine-1(6H)-carboxylate]"
–,–,–,–,improved solubility,CC[C@H](C)[C@@H]1NC(=O)[C@@H]2CCCN2C(=O)[C@H](CC(C)C)NC(=O)[C@H](Cc2ccccc2)NC(=O)[C@@H]2CCCN2C(=O)[C@H](Cc2c[nH]cn2)NC(=O)[C@H](CCSC)NC(=O)[C@@H](NC(=O)CN)CSSC[C@@H](C(=O)N[C@@H](CCC(=O)O)C(=O)N[C@@H](CCCNC(=N)N)C(=O)O)NC(=O)[C@H](Cc2ccccc2)NC(=O)[C@H](Cc2c[nH]cn2)NC(=O)[C@H](Cc2c[nH]cn2)NC(=O)[C@H](CO)NC(=O)[C@H](C(C)C)NC1=O [C4m-3127 peptide] (H-GCMHPFLPIVSHHFCER-OH; disulfide 2-15; N-terminus and C-terminus assumed)
